Common to all, as to type: functional
Test [1] concerns Enterobacter cloacae. Nature of the test: Antibacterial activity against AmpC producing Enterobacter cloacae SR-4321 by standard serial agar dilution method.
The next test relates to Moraxella catarrhalis. Briefly: Antibacterial activity against Moraxella catarrhalis ATCC 43617 by standard serial agar dilution method. Background: In agar dilution, organisms are placed on agar that contains the substance at set levels.
The next test relates to Streptococcus pneumoniae. Briefly: Antibacterial activity against penicillin-resistant Streptococcus pneumoniae SR-16675 by standard serial agar dilution method.
The test system of test [2] is Pseudomonas aeruginosa. Briefly: Antibacterial activity against Pseudomonas aeruginosa SR-5393 by standard serial agar dilution method.
Test [3] concerns Enterobacter cloacae. Nature of the test: Antibacterial activity against Enterobacter cloacae ATCC 13047 by standard serial agar dilution method.
The subject of test [4] is Haemophilus influenzae. Nature of the test: Antibacterial activity against Haemophilus influenzae ATCC 49766 by standard serial agar dilution method.
The test system of a further test is Staphylococcus aureus. Nature of the test: Antibacterial activity against Staphylococcus aureus Smith by standard serial agar dilution method.
Test [5] deals with Pseudomonas aeruginosa. Nature of the test: Antibacterial activity against Pseudomonas aeruginosa SR24 by standard serial agar dilution method.
In test [6] the test system is Pseudomonas aeruginosa. Briefly: Antibacterial activity against imipenem-resistant Pseudomonas aeruginosa SR-6554 by standard serial agar dilution method.
The subject of test [7] is Pseudomonas aeruginosa. Briefly: Antibacterial activity against AmpC hyperproducing Pseudomonas aeruginosa SR24-12 by standard serial agar dilution method.
Test [8] deals with Haemophilus influenzae. Briefly: Antibacterial activity against beta-lactamase negative ampicillin-resistant Haemophilus influenzae SR-11435 by standard serial agar dilution method.
Test [9] concerns Escherichia coli. Briefly: Antibacterial activity against Toho 2 producing Escherichia coli by standard serial agar dilution method.
Test [10] deals with Escherichia coli. Briefly: Antibacterial activity against Escherichia coli SR-21003 by standard serial agar dilution method.

In brackets after ≈: the same amount, converted by molar mass.

On to `C[C@H](N)CCn1c(N)nc2c1ccc[n+]2CC1=C(C(=O)[O-])N2C(=O)[C@@H](NC(=O)/C(=N\O[C@@H](C)C(=O)O)c3nc(N)sc3Cl)[C@H]2SC1`, for which the MIC with Enterobacter cloacae [1] amounted to 2 µg/mL (≈ 2.89 µM); against Moraxella catarrhalis, 0.008 µg/mL (≈ 0.0115 µM); with Streptococcus pneumoniae it was 2 µg/mL (≈ 2.89 µM); in the test on Pseudomonas aeruginosa [2], 2 µg/mL (≈ 2.89 µM); in the test with Enterobacter cloacae [3] it was 0.5 µg/mL (≈ 0.721 µM); against Haemophilus influenzae [4], 0.016 µg/mL (≈ 0.0231 µM). The MIC was 2 µg/mL (≈ 2.89 µM) in the test on Staphylococcus aureus; 0.5 µg/mL (≈ 0.721 µM) against Pseudomonas aeruginosa [5]; 8 µg/mL (≈ 11.5 µM) against Pseudomonas aeruginosa [6]; 4 µg/mL (≈ 5.77 µM) in the test on Pseudomonas aeruginosa [7]; 0.063 µg/mL (≈ 0.0909 µM) in the test on Haemophilus influenzae [8]; 2 µg/mL (≈ 2.89 µM) with Escherichia coli [9]. The MIC in the test on Escherichia coli [10] stood at 0.25 µg/mL (≈ 0.361 µM).

`C[C@H](O/N=C(\C(=O)N[C@@H]1C(=O)N2C(C(=O)[O-])=C(C[n+]3ccc(NC4CNC4)cc3)CS[C@H]12)c1nc(N)sc1Cl)C(=O)O`: the MIC against Enterobacter cloacae [1] amounted to 4 µg/mL (≈ 6.28 µM); in the test on Moraxella catarrhalis, 0.016 µg/mL (≈ 0.0251 µM); against Streptococcus pneumoniae it was 4 µg/mL (≈ 6.28 µM); against Pseudomonas aeruginosa [2], 2 µg/mL (≈ 3.14 µM); against Enterobacter cloacae [3], 0.5 µg/mL (≈ 0.785 µM); in the test with Haemophilus influenzae [4], 0.063 µg/mL (≈ 0.0989 µM). The MIC in the test with Staphylococcus aureus stood at 2 µg/mL (≈ 3.14 µM); with Pseudomonas aeruginosa [5], 0.5 µg/mL (≈ 0.785 µM); with Pseudomonas aeruginosa [6], 8 µg/mL (≈ 12.6 µM); against Pseudomonas aeruginosa [7], 4 µg/mL (≈ 6.28 µM); against Haemophilus influenzae [8], 0.25 µg/mL (≈ 0.392 µM); in the test with Escherichia coli [9], 4 µg/mL (≈ 6.28 µM). In the test with Escherichia coli [10], this compound registered an MIC of 0.5 µg/mL (≈ 0.785 µM).

For the compound `C[C@H](O/N=C(\C(=O)N[C@@H]1C(=O)N2C(C(=O)[O-])=C(C[n+]3cccc4c3ccn4CCNC(N)=O)CS[C@H]12)c1nc(N)sc1Cl)C(=O)O`, the MIC against Enterobacter cloacae [1] was determined as 4 µg/mL (≈ 5.78 µM); against Moraxella catarrhalis, 0.032 µg/mL (≈ 0.0462 µM); in the test with Streptococcus pneumoniae, 4 µg/mL (≈ 5.78 µM); against Pseudomonas aeruginosa [2], 4 µg/mL (≈ 5.78 µM); in the test with Enterobacter cloacae [3] it was 0.5 µg/mL (≈ 0.722 µM); against Haemophilus influenzae [4] it was 0.032 µg/mL (≈ 0.0462 µM). In addition, the MIC amounted to 4 µg/mL (≈ 5.78 µM) in the test with Staphylococcus aureus; 1 µg/mL (≈ 1.44 µM) with Pseudomonas aeruginosa [5]; 16 µg/mL (≈ 23.1 µM) against Pseudomonas aeruginosa [6]; 8 µg/mL (≈ 11.6 µM) against Pseudomonas aeruginosa [7]; 0.063 µg/mL (≈ 0.091 µM) with Haemophilus influenzae [8]; 2 µg/mL (≈ 2.89 µM) against Escherichia coli [9]. In addition, the MIC against Escherichia coli [10] was found to be 0.25 µg/mL (≈ 0.361 µM).

As to `C[C@H](O/N=C(\C(=O)N[C@@H]1C(=O)N2C(C(=O)[O-])=C(C[n+]3cccc4c3nc(N)n4CCNCCO)CS[C@H]12)c1nc(N)sc1Cl)C(=O)O`, the MIC with Enterobacter cloacae [1] came to 2 µg/mL (≈ 2.82 µM); in the test with Moraxella catarrhalis, 0.016 µg/mL (≈ 0.0226 µM); with Streptococcus pneumoniae it was 2 µg/mL (≈ 2.82 µM); in the test with Pseudomonas aeruginosa [2], 4 µg/mL (≈ 5.64 µM); against Enterobacter cloacae [3], 0.5 µg/mL (≈ 0.705 µM); in the test on Haemophilus influenzae [4], 0.032 µg/mL (≈ 0.0451 µM). Also, the MIC was found to be 4 µg/mL (≈ 5.64 µM) with Staphylococcus aureus; 1 µg/mL (≈ 1.41 µM) against Pseudomonas aeruginosa [5]; 16 µg/mL (≈ 22.6 µM) against Pseudomonas aeruginosa [6]; 4 µg/mL (≈ 5.64 µM) against Pseudomonas aeruginosa [7]; 0.063 µg/mL (≈ 0.0888 µM) against Haemophilus influenzae [8]; 4 µg/mL (≈ 5.64 µM) against Escherichia coli [9]. Moreover, in the test with Escherichia coli [10], the MIC is 0.5 µg/mL (≈ 0.705 µM).

As for `C[C@H](O/N=C(\C(=O)N[C@@H]1C(=O)N2C(C(=O)[O-])=C(C[n+]3cccc4c3nc(N)n4[C@H]3CCNC3)CS[C@H]12)c1nc(N)sc1Cl)C(=O)O`, the MIC is 2 µg/mL (≈ 2.89 µM) in the test with Enterobacter cloacae [1]; 0.016 µg/mL (≈ 0.0231 µM) with Moraxella catarrhalis; 2 µg/mL (≈ 2.89 µM) with Streptococcus pneumoniae; 2 µg/mL (≈ 2.89 µM) in the test with Pseudomonas aeruginosa [2]; 0.5 µg/mL (≈ 0.723 µM) against Enterobacter cloacae [3]; 0.032 µg/mL (≈ 0.0463 µM) against Haemophilus influenzae [4]. Also, the MIC worked out at 4 µg/mL (≈ 5.79 µM) against Staphylococcus aureus; 0.5 µg/mL (≈ 0.723 µM) against Pseudomonas aeruginosa [5]; 8 µg/mL (≈ 11.6 µM) in the test with Pseudomonas aeruginosa [6]; 2 µg/mL (≈ 2.89 µM) with Pseudomonas aeruginosa [7]; 0.125 µg/mL (≈ 0.181 µM) in the test on Haemophilus influenzae [8]; 2 µg/mL (≈ 2.89 µM) against Escherichia coli [9]. The compound further registered an MIC against Escherichia coli [10] of 0.25 µg/mL (≈ 0.362 µM).

Take `CNCCCn1c(N)cc2c1ccc[n+]2CC1=C(C(=O)[O-])N2C(=O)[C@@H](NC(=O)/C(=N\O[C@@H](C)C(=O)O)c3nc(N)sc3Cl)[C@H]2SC1`: the MIC is 2 µg/mL (≈ 2.89 µM) in the test with Enterobacter cloacae [1]; 0.016 µg/mL (≈ 0.0231 µM) in the test on Moraxella catarrhalis; 4 µg/mL (≈ 5.78 µM) against Streptococcus pneumoniae; 2 µg/mL (≈ 2.89 µM) against Pseudomonas aeruginosa [2]; 0.5 µg/mL (≈ 0.722 µM) in the test on Enterobacter cloacae [3]; 0.016 µg/mL (≈ 0.0231 µM) against Haemophilus influenzae [4]. Also, the MIC with Staphylococcus aureus was 1 µg/mL (≈ 1.44 µM); in the test with Pseudomonas aeruginosa [5] it was 0.5 µg/mL (≈ 0.722 µM); against Pseudomonas aeruginosa [6], 16 µg/mL (≈ 23.1 µM); against Pseudomonas aeruginosa [7], 2 µg/mL (≈ 2.89 µM); in the test with Haemophilus influenzae [8], 0.063 µg/mL (≈ 0.091 µM); in the test with Escherichia coli [9], 2 µg/mL (≈ 2.89 µM). In the test on Escherichia coli [10], this compound came in with an MIC of 0.25 µg/mL (≈ 0.361 µM).

As for `CNCCn1c(N)nc2c[n+](CC3=C(C(=O)[O-])N4C(=O)[C@@H](NC(=O)/C(=N\O[C@@H](C)C(=O)O)c5nc(N)sc5Cl)[C@H]4SC3)ccc21`, the MIC with Enterobacter cloacae [1] came to 4 µg/mL (≈ 5.89 µM); against Moraxella catarrhalis it was 0.032 µg/mL (≈ 0.0471 µM); with Streptococcus pneumoniae, 4 µg/mL (≈ 5.89 µM); against Pseudomonas aeruginosa [2], 2 µg/mL (≈ 2.94 µM); against Enterobacter cloacae [3], 0.5 µg/mL (≈ 0.736 µM); with Haemophilus influenzae [4], 0.032 µg/mL (≈ 0.0471 µM). The MIC in the test on Staphylococcus aureus worked out at 16 µg/mL (≈ 23.6 µM); with Pseudomonas aeruginosa [5] it was 1 µg/mL (≈ 1.47 µM); in the test on Pseudomonas aeruginosa [6], 8 µg/mL (≈ 11.8 µM); against Pseudomonas aeruginosa [7] it was 4 µg/mL (≈ 5.89 µM); against Haemophilus influenzae [8] it was 0.125 µg/mL (≈ 0.184 µM); in the test on Escherichia coli [9], 1 µg/mL (≈ 1.47 µM). The MIC in the test with Escherichia coli [10] was determined as 0.25 µg/mL (≈ 0.368 µM).

The record behind these values is ChEMBL document CHEMBL1144019 (Bioorg Med Chem, 2008).
